Measurements: US20100015058A1, “RADIOLABELED BBN-RGD HETERODIMERS FOR CANCER TARGETING” (STANFORD UNIVERSITY, priority 2008, published 2010)

Key:
T47D tumor cells = assay: Cell uptake assay on T47D tumor cells; assay type: cell-based, human; conditions: 120 min, 37° C., n=3
Protocol: The cells suspensions were collected and measured in a y counter (Packard, Meriden, Conn.). The cell uptake was expressed as the percent added dose (% AD) after decay correction. Experiments were performed twice with triplicate wells.

[1] = MicroPET blood and normal organ uptake in T47D and MDA-MB-435 tumor-bearing nude mice; conditions: for tissue uptake at 2 h / tissue uptake at 0.5 h / tissue uptake at 1 h / tissue uptake at 4 h / tissue uptake at 24 h: nude, mouse, iv, total radioactivity
From the text: The T47D or MDA-MB435 tumor uptake is expressed as the average of each tracer in four mice, while the normal organ uptake is expressed as the average of each tracer in eight mice (four T47D tumor-bearing mice and four MDA-MB-435 tumor-bearing mice per tracer).

[2] = MicroPET of T47D tumor-bearing mice; assay type: in vivo; conditions: female, nude, mouse, T47D tumor, iv, total radioactivity, orthotopic model
From the text: The MDA-MB-231, MDA-MB468, BT474, BT-20, T47D, MCF-7 and MDA-MB435 human breast cancer cell lines were all obtained from the American Type Culture Collection (ATCC) and maintained under standard conditions according to ATCC. The MDA-MB435 tumor model was established by orthotopic injections of 5×10^6 cells into the right mammary fat pad of female athymic nude mice. For T47D tumor model establishment, the female nude mice were first subcutaneously implanted with 60-day release 17β-estradiol pellets (Innovative Research of America, Sarasota, Fla.) in the left neck. One day after the estradiol implantation, 1×10^7 T47D cells were orthotopically injected into the right mammary fat pad of the nude mice. The mice were subjected to microPET studies when the tumor volume reached 100-300 mm^3 (2-3 weeks for MDA-MB-435, and 4-5 wk for T47D).
(§1) Quantification of tumor and major organ activity accumulation in the microPET scans was realized by measuring the regions of interest (ROIs) that encompassing the entire organ on the coronal images.

[3] = Small-animal PET of MDA-MB-435 tumor-bearing mice; conditions: female, athymic nude, mouse, in vivo, iv, total radioactivity
Protocol: The MDA-MB435 tumor model was established by orthotopic injections of 5×10^6 cells into the right mammary fat pad of female athymic nude mice. […] The mice were subjected to microPET studies when the tumor volume reached 100-300 mm^3 (2-3 weeks for MDA-MB-435, and 4-5 wk for T47D).
For static PET, 5-min scans were acquired at 30 min, 1 h, and 2 h after injection. For dynamic PET, 30-min scans (1×30 s, 4×1 min, 1×1.5 min, 4×2 min, 5×3 min; total 15 frames) were started 1 min after injection, and two 5-min static PET images were also acquired at 1 h and 2 h after injection. The images were reconstructed using a two-dimensional ordered subsets expectation maximum (OSEM) algorithm and no correction was applied for attenuation or scatter. […] For each small-animal PET scan, regions of interest (ROIs) were drawn over the tumor, normal tissue, and major organs using vendor software ASI Pro 5.2.4.0 on decay-corrected whole-body coronal images. The maximum radioactivity concentrations (accumulation) within a tumor or an organ were obtained from mean pixel values within the multiple ROI volume, and were converted to megabecquerels per milliliter per minute using a conversion factor. These values were then divided by the administered activity to obtain (assuming a tissue density of 1 g/ml) an image ROI-derived percent injected dose per gram (% ID/g).
as §1

PC-3 tumor cells = assay: Cell uptake assay on PC-3 tumor cells; assay type: cell-based, human; conditions: PC-3 cells
Protocol: In the cell uptake experiment, PC-3 cells were seeded into 12-well plates at a density of 5×10^5 cells per well for overnight incubation. Cells were rinsed 3 times with phosphate-buffered saline (PBS), followed by the addition of ^18F-FB-RGD, ^18F-FB-BBN, or ^18F-BBN-RGD to the cultured wells in triplicate (about 2 μCi/well). […] The cell lysate was collected in measurement tubes for counting. The cell uptake was normalized in terms of added radioactivity.
The cell uptake studies were performed as we have previously described with some modifications (Chen et al., Mol Imaging Biol. (2004) […]; Cai et al., (2006) J. Nuc. Med. 47: 1172-1180, incorporated herein by reference in their entireties). Briefly, PC-3 cells were seeded into 12-well plates at a density of 5×10^5 cells per well and incubated (about 18 kBq/well) with ^68Ga-labeled tracers at 37° C. for 15, 30, 60, and 120 min. Tumor cells were then washed three times with chilled PBS and harvested by trypsinization with 0.25% trypsin/0.02% EDTA (Invitrogen). The cell suspensions were collected and measured in a y counter (Packard, Meriden, Conn.). The cell uptake was expressed as the percent added dose (% AD) after decay correction. Experiments were performed twice with triplicate wells. For efflux studies, ^68Ga-labeled tracers (about 18 kBq/well) were first incubated with PC-3 cells in 12-well plates for 1 h at 37° C. to allow internalization. Then cells were washed twice with PBS, and incubated with cell culture medium for 15, 30, and 60 min. After washing three times with PBS, cells were harvested by trypsinization with 0.25% trypsin/0.02% EDTA. The cell suspensions were collected and measured in a γ counter. Experiments were performed twice with triplicate wells. Data are expressed as percent added dose after decay correction.

[4] = blood, Blood uptake, average of eight mice
[5] = kidney, Kidney uptake, average of eight mice
[6] = liver, Liver uptake, average of eight mice
[7] = muscle, Muscle uptake, average of eight mice

In the case of `CSCC[C@H](NC(=O)[C@H](CC(C)C)NC(=O)[C@H](Cc1c[nH]cn1)NC(=O)CNC(=O)[C@@H](NC(=O)[C@H](C)NC(=O)[C@H](Cc1c[nH]c2ccccc12)NC(=O)[C@H](CCC(N)=O)NC(=O)CCCCCNC(=O)CC[C@H](NC(=O)COCCOCCOCCNC(=O)c1ccc([18F])cc1)C(=O)NCCCC[C@@H]1NC(=O)[C@@H](Cc2ccc(O)cc2)NC(=O)[C@H](CC(=O)O)NC(=O)CNC(=O)[C@H](CCCNC(=N)N)NC1=O)C(C)C)C(N)=O` [^18F-FB-PEG3-RGD-BBN], the “T47D cell uptake value” (T47D tumor cells) is reported as 4.25±0.13 % AD, the Liver uptake ([1]; average of eight mice, 0.5 h) is reported as 1.13±0.43 % ID/g and the Kidney uptake ([1]; average of eight mice, 2 h) is reported as 0.74±0.19 % ID/g. It also gave a tissue uptake at 2 h ([1]; female, kidney) of 0.74 ± 0.19 %ID/g, a tissue uptake at 0.5 h ([1]; female, liver) of 1.13 ± 0.43 %ID/g and a tissue uptake at 0.5 h ([1]; blood) of 0.78 ± 0.37 %ID/g. For the same compound, the tissue uptake at 1 h ([1]; blood) was 0.41 ± 0.11 %ID/g, the tissue uptake at 2 h ([1]; blood) was 0.18 ± 0.02 %ID/g and the tissue uptake at 0.5 h ([1]; kidney) was 2.77 ± 0.78 %ID/g. The tissue uptake at 1 h ([1]; kidney) was 1.56 ± 0.32 %ID/g, the tissue uptake at 1 h ([1]; liver) was 0.56 ± 0.21 %ID/g and the tissue uptake at 2 h ([1]; liver) was 0.23 ± 0.07 %ID/g. The tissue uptake at 0.5 h ([1]; muscle) was 0.81 ± 0.23 %ID/g, the tissue uptake at 1 h ([1]; muscle) was 0.33 ± 0.17 %ID/g and the tissue uptake at 2 h ([1]; muscle) was 0.15 ± 0.05 %ID/g. The tissue uptake at 0.5 h [2] was 2.96 ± 0.53 %ID/g, the tissue uptake at 1 h [2] was 1.81 ± 0.34 %ID/g and the tissue uptake at 2 h [2] was 0.91 ± 0.12 %ID/g. It also gave a tissue uptake at 0.5 h ([3]; MDA-MB-435 tumor uptake) of 2.72 ± 0.8 %ID/g, a tissue uptake at 1 h ([3]; MDA-MB-435 tumor uptake) of 1.59 ± 0.65 %ID/g and a tissue uptake at 2 h ([3]; MDA-MB-435 tumor uptake) of 0.84 ± 0.22 %ID/g. The “inhibition of cell uptake by BBN” value (PC-3 tumor cells; 4° C., 60 min, blocking with Aca-BBN(7-14)) was 83.67±2.09%, the “inhibition of cell uptake by RGD+BBN” value (PC-3 tumor cells; 4° C., 60 min, blocking with both peptides) was 91.97±0.14% and the “inhibition of cell uptake by RGD” value (PC-3 tumor cells; 4° C., 60 min, blocking with c(RGDyK)) was 17.55±8.89%. The cell uptake (PC-3 tumor cells; 37° C., 15 min) was 4.72±0.37%, the cell uptake (PC-3 tumor cells; 37° C., 30 min) was 5.51±0.11% and the cell uptake (PC-3 tumor cells; 37° C., 60 min) was 5.87±0.15%. The cell uptake (PC-3 tumor cells; 37° C., 120 min) was 6.65±0.34% and the “internalization (uptake at 37° C. minus uptake at 4° C.)” value (PC-3 tumor cells; within 30 min of incubation, plateaus afterwards) was “about 3.5%”.
For `CSCC[C@H](NC(=O)[C@H](CC(C)C)NC(=O)[C@H](Cc1c[nH]cn1)NC(=O)CNC(=O)[C@@H](NC(=O)[C@H](C)NC(=O)[C@H](Cc1c[nH]c2ccccc12)NC(=O)[C@H](CCC(N)=O)NC(=O)CCCCCNC(=O)CC[C@H](NC(=S)Nc1ccc(C[C@H]2CN(CC(=O)O)CCN(CC(=O)O)CCN2CC(=O)O)cc1)C(=O)NCCCC[C@@H]1NC(=O)[C@@H](Cc2ccc(O)cc2)NC(=O)[C@H](CC(=O)O)NC(=O)CNC(=O)[C@H](CCCNC(=N)N)NC1=O)C(C)C)C(N)=O` [^64Cu-NOTA-RGD-BBN, metal not drawn], the “T47D cell uptake value” (T47D tumor cells) was 5.30±0.53 % AD, the Blood uptake ([1]; average of eight mice, 0.5 h) was 1.40 ± 0.34 % ID/g and the Kidney uptake ([1]; average of eight mice, 0.5 h) was 5.29 ± 0.58 % ID/g. The Liver uptake ([1]; average of eight mice, 0.5 h) was 4.82 ± 1.34 % ID/g, the Muscle uptake ([1]; average of eight mice, 0.5 h) was 0.91 ± 0.27 % ID/g and the Kidney uptake ([1]; average of eight mice, 1 h) was 4.32 ± 0.55 % ID/g. It also gave a Liver uptake ([1]; average of eight mice, 1 h) of 4.05 ± 1.12 % ID/g, a Muscle uptake ([1]; average of eight mice, 1 h) of 0.75 ± 0.12 % ID/g and a Kidney uptake ([1]; average of eight mice, 2 h) of 3.28±0.99 % ID/g. For the same compound, the Liver uptake ([1]; average of eight mice, 2 h) was 3.22 ± 0.97 % ID/g, the Muscle uptake ([1]; average of eight mice, 2 h) was 0.56 ± 0.33 % ID/g and the tissue uptake at 1 h ([1]; blood, Blood uptake, average of eight mice, 1 h) was 1.01 ± 0.21 %ID/g. For the same compound, the tissue uptake at 2 h ([1]; blood, Blood uptake, average of eight mice, 2 h) was 0.89 ± 0.23 %ID/g, the tissue uptake at 4 h [1, 4] was 0.54 ± 0.2 %ID/g and the tissue uptake at 24 h [1, 4] was 0.36 ± 0.04 %ID/g. The tissue uptake at 4 h [1, 5] was 2.95 ± 0.26 %ID/g, the tissue uptake at 24 h [1, 5] was 2.1 ± 0.72 %ID/g and the tissue uptake at 4 h [1, 6] was 2.76 ± 0.81 %ID/g. It also gave a tissue uptake at 24 h [1, 6] of 2.24 ± 0.36 %ID/g, a tissue uptake at 4 h [1, 7] of 0.4 ± 0.07 %ID/g and a tissue uptake at 24 h [1, 7] of 0.21 ± 0.04 %ID/g. It also gave a tissue uptake at 4 h ([2]; 4 h) of 1.94 ± 0.22 %ID/g, a tissue uptake at 24 h ([2]; 24 h) of 1.38 ± 0.16 %ID/g and a tissue uptake at 4 h ([3]; MDA-MB-435 tumor uptake) of 1.79 ± 0.2 %ID/g. For the same compound, the tissue uptake at 24 h ([3]; MDA-MB-435 tumor uptake) was 1.29 ± 0.09 %ID/g and the cell uptake value (PC-3 tumor cells; 120 min) was 2.94 % added dose.
In the case of `CSCC[C@H](NC(=O)[C@H](CC(C)C)NC(=O)[C@H](Cc1c[nH]cn1)NC(=O)CNC(=O)[C@@H](NC(=O)[C@H](C)NC(=O)[C@H](Cc1c[nH]c2ccccc12)NC(=O)[C@H](CCC(N)=O)NC(=O)CCCCCNC(=O)CC[C@H](NC(=S)Nc1ccc(C[C@H]2CN(CC(=O)O)CCN(CC(=O)O)CCN2CC(=O)O)cc1)C(=O)NCCCC[C@@H]1NC(=O)[C@@H](Cc2ccc(O)cc2)NC(=O)[C@H](CC(=O)O)NC(=O)CNC(=O)[C@H](CCCNC(=N)N)NC1=O)C(C)C)C(N)=O` [^68Ga-NOTA-RGD-BBN, metal not drawn], the “T47D cell uptake value” (T47D tumor cells) is reported as 2.42±0.23 % AD, the Blood uptake ([1]; average of eight mice, 0.5 h) is reported as 2.91 ± 0.28 % ID/g and the Blood uptake ([1]; average of eight mice, 1 h) is reported as 1.95 ± 0.47 % ID/g. It also gave a Blood uptake ([1]; average of eight mice, 2 h) of 1.06 ± 0.23 % ID/g, a Kidney uptake ([1]; average of eight mice, 2 h) of 1.64±0.40 % ID/g and a Liver uptake ([1]; average of eight mice, 2 h) of 1.60 ± 0.09 % ID/g. For the same compound, the tissue uptake at 2 h ([1]; female, kidney, Kidney uptake, average of eight mice, 2 h) was 1.64 ± 0.4 %ID/g, the tissue uptake at 0.5 h ([1]; female, liver, Liver uptake, average of eight mice, 0.5 h) was 2.68 ± 0.29 %ID/g and the tissue uptake at 0.5 h ([1]; kidney, Kidney uptake, average of eight mice, 0.5 h) was 4.39 ± 1.05 %ID/g. It also gave a tissue uptake at 1 h ([1]; kidney, Kidney uptake, average of eight mice, 1 h) of 3.96 ± 1.12 %ID/g, a tissue uptake at 1 h ([1]; liver, Liver uptake, average of eight mice, 1 h) of 2.08 ± 0.43 %ID/g and a tissue uptake at 0.5 h ([1]; muscle, Muscle uptake, average of eight mice, 0.5 h) of 1.33 ± 0.28 %ID/g. It also gave a tissue uptake at 1 h ([1]; muscle, Muscle uptake, average of eight mice, 1 h) of 1.18 ± 0.44 %ID/g, a tissue uptake at 2 h ([1]; muscle, Muscle uptake, average of eight mice, 2 h) of 0.78 ± 0.07 %ID/g and a tissue uptake at 0.5 h [2] of 3.91 ± 1.13 %ID/g. It also gave a tissue uptake at 1 h [2] of 2.78 ± 0.87 %ID/g, a tissue uptake at 2 h [2] of 2.42 ± 0.29 %ID/g and a tissue uptake at 1 h ([3]; 3.7 MBq, MDA-MB435 tumor uptake) of 3.23 ± 0.86 %ID/g. The tissue uptake at 1 h ([3]; MDA-MB-435 tumor uptake) was 2.24 ± 0.73 %ID/g, the tissue uptake at 2 h ([3]; MDA-MB-435 tumor uptake) was 1.84 ± 0.72 %ID/g and the “cell uptake (plateau)” value (PC-3 tumor cells; 37° C., 15 min incubation) was 1.69±0.29 % AD.
